Assay results as given in publication PMC8933014, “Diversely substituted sulfamides for fragment-based drug discovery of carbonic anhydrase inhibitors: synthesis and inhibitory profile” (Journal of Enzyme Inhibition and Medicinal Chemistry, 2022).
Counter-ions that a name gives are not always drawn.

Key:
Assay in all cases: stopped-flow CO2 hydration
Type in all cases: biochemical
hCA II = target: T1, hCA II (Homo sapiens, UniProt P00918); conditions: read-out: Ki (nM)^b / hCA II
T1 construct: gene CA2; recombinant, obtained in-house
Source text: stopped-flow CO2 hydration on hCA II

hCA XII = target: T2, hCA XII (Homo sapiens, UniProt O43570); conditions: read-out: Ki (nM)^b / hCA XII
T2 construct: gene CA12; recombinant, obtained in-house
Source text: stopped-flow CO2 hydration on hCA XII

hCA IX = target: T3, hCA IX (Homo sapiens, UniProt Q16790); conditions: read-out: Ki (nM)^b / hCA IX
T3 construct: gene CA9; recombinant, obtained in-house
Source text: stopped-flow CO2 hydration on hCA IX

hCA I = target: T4, hCA I (Homo sapiens, UniProt P00915); conditions: read-out: Ki (nM)^b / hCA I
T4 construct: gene CA1; recombinant, obtained in-house
Source text: stopped-flow CO2 hydration on hCA I

T2 sequence (O43570 25-354): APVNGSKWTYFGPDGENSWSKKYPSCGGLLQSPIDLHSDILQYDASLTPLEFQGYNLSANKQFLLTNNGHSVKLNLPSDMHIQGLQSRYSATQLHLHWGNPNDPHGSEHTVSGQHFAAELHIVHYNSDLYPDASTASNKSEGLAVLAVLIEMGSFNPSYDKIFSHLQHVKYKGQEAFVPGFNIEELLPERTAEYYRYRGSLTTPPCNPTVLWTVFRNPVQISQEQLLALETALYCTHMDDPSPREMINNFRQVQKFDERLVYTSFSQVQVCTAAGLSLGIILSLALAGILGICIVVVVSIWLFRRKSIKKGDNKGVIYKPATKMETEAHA
T4 sequence (P00915 2-261): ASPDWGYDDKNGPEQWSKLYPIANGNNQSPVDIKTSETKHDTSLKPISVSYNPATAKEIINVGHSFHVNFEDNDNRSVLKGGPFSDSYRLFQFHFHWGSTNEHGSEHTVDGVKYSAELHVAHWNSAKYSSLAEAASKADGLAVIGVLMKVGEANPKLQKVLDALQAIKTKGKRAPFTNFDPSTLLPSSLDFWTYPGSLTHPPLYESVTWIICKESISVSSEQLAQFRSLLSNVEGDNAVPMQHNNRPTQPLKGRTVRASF

| Ki (hCA II) [nM] | Ki (hCA XII) [nM] | Ki (hCA IX) [nM] | Ki (hCA I) [nM] | Structure (SMILES) |
| --- | --- | --- | --- | --- |
| 66.9 | 101 | 82.1 | 59.2 | NS(=O)(=O)N1CCOCC1 [2o, Morpholine-4-sulphonamide] |
| 52.1 | 38.4 | 63.2 | 89.7 | CN1CCC(NS(N)(=O)=O)CC1 [2g, (1-Methylpiperidin-4-yl)sulfamide] |
| 32.1 | 52.5 | 58.6 | 64.2 | CN1CCN(S(N)(=O)=O)CC1 [2b, 4-Methylpiperazine-1-sulphonamide] |
| 39.8 | 19.7 | 65.1 | 28.4 | CN(C)CCN(Cc1ccccc1)S(N)(=O)=O [2i, Benzyl (2-(dimethylamino)ethyl)sulfamide] |
| 42.6 | 59.7 | 36.8 | 121 | NS(=O)(=O)NC1CCCc2ccccc21 (centres unmarked) [2d, N-(1,2,3,4-Tetrahydronaphthalen-1-yl)sulfamide] |
| 48.2 | 66.8 | 73.2 | 22.6 | NS(=O)(=O)NCc1cccs1 [2k, (Thiophen-2-ylmethyl) sulfamide] |
| 76.3 | 224 | 38.5 | 45.7 | NS(=O)(=O)Nc1ccc(F)cc1F [2w, N-(2,4-Difluorophenyl)sulfamide] |
| 59.4 | 39.3 | 68 | 29.6 | NS(=O)(=O)Nc1ncccn1 [2s, N-(Pyrimidin-2-yl)sulfamide] |
| 59.4 | 40.2 | 46.2 | 88.2 | NC(=O)C1CCN(S(N)(=O)=O)CC1 [2p, 1-Sulfamoylpiperidine-4-carboxamide] |
| 70.5 | 51.7 | 30.7 | 126 | NS(=O)(=O)NCc1ccc(F)cc1 [2c, N-(4-Fluorobenzyl)sulfamide] |
| 69.8 | 83.6 | 78.2 | 52.1 | COC(=O)C1CCCN1S(N)(=O)=O (centres unmarked) [2f, Methyl sulfamoylprolinate] |
| 316 | 116 | 94.7 | 868 | CC1Cc2ccccc2N1S(N)(=O)=O (centres unmarked) [2r, 2-Methylindoline-1-sulphonamide] |
| 56.7 | 72.3 | 25.4 | 160 | NS(=O)(=O)Nc1cccc2ccccc12 [2u, N-(Naphthalen-1-yl)sulfamide] |
| 63.4 | 98 | 92.7 | 38.4 | NS(=O)(=O)NCC1CCCO1 (centres unmarked) [2e, N-((tetrahydrofuran-2-yl)methyl)sulfamide] |
| 52.9 | 100 | 78.2 | 68.9 | NS(=O)(=O)N1CCNCC1 [2q, Piperazine-1-sulphonamide hydrochloride] |
| 90.2 | 16.5 | 29.5 | 98.5 | NS(=O)(=O)NCc1cccnc1 [2j, (Pyridin-3-ylmethyl)sulfamide] |
| 42.7 | 25.3 | 54.2 | 75.6 | NS(=O)(=O)N1CCC(O)CC1 [2a, 4-Hydroxypiperidine-1-sulphonamide] |
| 89.5 | 114 | 34.2 | 231 | NS(=O)(=O)N1CCCc2ccccc21 [2t, 3,4-Dihydroquinoline-1(2H)-sulphonamide] |
| 472 | 95.7 | 102 | 723 | NS(=O)(=O)N1CCc2ccccc21 [2v, Indoline-1-sulphonamide] |
| 99.3 | 35.1 | 72.5 | 497 | NS(=O)(=O)N1CCC(N2CCCCC2)CC1 [2n, [1,4'-Bipiperidine]-1'-sulphonamide] |
| 42.8 | 25.9 | 58.1 | 62.8 | CCOC(=O)C1CCN(S(N)(=O)=O)CC1 [2m, Ethyl 1-sulfamoylpiperidine-4-carboxylate] |
| 120 | 96.7 | 58.2 | 359 | NS(=O)(=O)N1CCC(c2ccccc2)CC1 [2h, 4-Phenylpiperidine-1-sulphonamide] |
| 92.3 | 72.5 | 126 | 59.6 | CCN(CC)CCN(C)S(N)(=O)=O [2l, (2-(Diethylamino)ethyl)(methyl)sulfamide] |
